Measured values: patent publication US9127255B2, “3-dimensional scaffolds for improved differentiation of pluripotent stem cells to hepatocytes” (Takara Bio Europe AB, priority 2010, dated 2015)

Test system: CYP2C9
Test: CYP2C9 activity and induction in cells cultured in Alvatex (ReInnervate) scaffolds, OH-Diclophenac by HPLC
Assay type: cell-based, human
Conditions: cells cultured on 3D surfaces (FIG. 8)
Method: Cell line SA461 (Cellartis AB) was cultured and differentiated according to conditions in Examples 1 and 2, experiment 083 and then according to the scheme below: Cells were induced with 1 mM Phenobarbital, 10 μM dexamethasone and 5 μM β-naphthoflavone. To each well, either induction or control medium was added (400 ul/well 2D cultures, 2000 ul/well in […] scaffolds) and the plate was incubated 24 h. After 24 hours of induction, all wells were washed 2× in DPBS+/+ and activity assay medium was added, 200 ul/well in 2D controls and 1000 ul/well in ReInnervate scaffolds. […] After 16 hours incubation at 37 C, the medium was transferred to eppendorf tubes and spun down for 20 min at 4° C. and 10000 g. […] Figures show CYP response in hESC-derived hepatocytes cultured either on […]) or 2D control, cells induced with Diclofenac to mimic hepatic liver activity. Activity assay performed at day 23 and day 29 as indicated.

O=C(O)Cc1ccccc1Nc1c(Cl)cccc1Cl [diclophenac] was tested, and the “CYP2C9 activity when cells were treated” value was “elevated”.
